Measured values: BigSolDB 2.1

O=S(=O)(c1ccccc1)N(F)S(=O)(=O)c1ccccc1
Details	solubility (mole fraction)
in 2-butanone, 273.35 K	0.0332
in 2-butanone, 278.35 K	0.0396
in 2-butanone, 283.35 K	0.047
in 2-butanone, 288.35 K	0.0546
in 2-butanone, 292.85 K	0.0637
in 2-butanone, 297.95 K	0.0734
in 2-butanone, 302.65 K	0.0852
in 2-butanone, 307.35 K	0.0978
in 2-butanone, 312.55 K	0.111
in 2-butanone, 316.95 K	0.128
in 2-butanone, 322.85 K	0.146
in 2-pentanone, 273.35 K	0.0316
in 2-pentanone, 278.35 K	0.038
in 2-pentanone, 283.35 K	0.0455
in 2-pentanone, 288.35 K	0.0534
in 2-pentanone, 292.85 K	0.0628
in 2-pentanone, 297.95 K	0.073
in 2-pentanone, 302.65 K	0.0853
in 2-pentanone, 307.35 K	0.0988
in 2-pentanone, 312.55 K	0.113
in 2-pentanone, 316.95 K	0.131
in 2-pentanone, 322.85 K	0.151
in acetone, 273.35 K	0.0309
in acetone, 278.35 K	0.0376
in acetone, 283.35 K	0.0455
in acetone, 288.35 K	0.0539
in acetone, 292.85 K	0.0639
in acetone, 297.95 K	0.0749
in acetone, 302.65 K	0.0885
in acetone, 307.35 K	0.104
in acetone, 312.55 K	0.119
in acetone, 316.95 K	0.14
in acetone, 322.85 K	0.162
in acetonitrile, 273.35 K	0.00951
in acetonitrile, 278.35 K	0.0126
in acetonitrile, 283.35 K	0.0165
in acetonitrile, 288.35 K	0.021
in acetonitrile, 292.85 K	0.0267
in acetonitrile, 297.95 K	0.0334
in acetonitrile, 302.65 K	0.0422
in acetonitrile, 307.35 K	0.0528
in acetonitrile, 312.55 K	0.0645
in acetonitrile, 316.95 K	0.0804
in acetonitrile, 322.85 K	0.0996
in ethanol, 273.35 K	0.000599
in ethanol, 278.35 K	0.000791
in ethanol, 283.35 K	0.00103
in ethanol, 288.35 K	0.00134
in ethanol, 292.85 K	0.00168
in ethanol, 297.95 K	0.00214
in ethanol, 302.65 K	0.00268
in ethanol, 307.35 K	0.00331
in ethanol, 312.55 K	0.00417
in ethanol, 316.95 K	0.00503
in ethanol, 322.85 K	0.00641
in ethyl acetate, 273.35 K	0.0243
in ethyl acetate, 278.35 K	0.0295
in ethyl acetate, 283.35 K	0.0353
in ethyl acetate, 288.35 K	0.0415
in ethyl acetate, 292.85 K	0.0489
in ethyl acetate, 297.95 K	0.0568
in ethyl acetate, 302.65 K	0.0668
in ethyl acetate, 307.35 K	0.0775
in ethyl acetate, 312.55 K	0.0885
in ethyl acetate, 316.95 K	0.103
in ethyl acetate, 322.85 K	0.119
in ethyl formate, 273.35 K	0.0206
in ethyl formate, 278.35 K	0.0254
in ethyl formate, 283.35 K	0.0309
in ethyl formate, 288.35 K	0.0369
in ethyl formate, 292.85 K	0.0441
in ethyl formate, 297.95 K	0.052
in ethyl formate, 302.65 K	0.0619
in ethyl formate, 307.35 K	0.0728
in ethyl formate, 312.55 K	0.0843
in ethyl formate, 316.95 K	0.0992
in ethyl formate, 322.85 K	0.116
in isobutanol, 273.35 K	0.000182
in isobutanol, 278.35 K	0.000265
in isobutanol, 283.35 K	0.000382
in isobutanol, 288.35 K	0.000545
in isobutanol, 292.85 K	0.000744
in isobutanol, 297.95 K	0.00104
in isobutanol, 302.65 K	0.00141
in isobutanol, 307.35 K	0.00188
in isobutanol, 312.55 K	0.00258
in isobutanol, 316.95 K	0.00332
in isobutanol, 322.85 K	0.00467
in isopentanol, 273.35 K	0.000312
in isopentanol, 278.35 K	0.000432
in isopentanol, 283.35 K	0.000594
in isopentanol, 288.35 K	0.000812
in isopentanol, 292.85 K	0.00106
in isopentanol, 297.95 K	0.00142
in isopentanol, 302.65 K	0.00184
in isopentanol, 307.35 K	0.00238
in isopentanol, 312.55 K	0.00312
in isopentanol, 316.95 K	0.00389
in isopentanol, 322.85 K	0.00519
in isopropanol, 273.35 K	0.000584
in isopropanol, 278.35 K	0.000798
in isopropanol, 283.35 K	0.000929
in isopropanol, 288.35 K	0.00121
in isopropanol, 292.85 K	0.0015
in isopropanol, 297.95 K	0.00186
in isopropanol, 302.65 K	0.00226
in isopropanol, 307.35 K	0.00275
in isopropanol, 312.55 K	0.00346
in isopropanol, 316.95 K	0.0041
in isopropanol, 322.85 K	0.00495
in methanol, 273.35 K	0.000611
in methanol, 278.35 K	0.000792
in methanol, 283.35 K	0.00102
in methanol, 288.35 K	0.0013
in methanol, 292.85 K	0.0016
in methanol, 297.95 K	0.00201
in methanol, 302.65 K	0.00248
in methanol, 307.35 K	0.00302
in methanol, 312.55 K	0.00374
in methanol, 316.95 K	0.00445
in methanol, 322.85 K	0.0056
in methyl acetate, 273.35 K	0.0285
in methyl acetate, 278.35 K	0.0346
in methyl acetate, 283.35 K	0.0417
in methyl acetate, 288.35 K	0.0492
in methyl acetate, 292.85 K	0.0583
in methyl acetate, 297.95 K	0.0681
in methyl acetate, 302.65 K	0.0803
in methyl acetate, 307.35 K	0.0934
in methyl acetate, 312.55 K	0.107
in methyl acetate, 316.95 K	0.126
in methyl acetate, 322.85 K	0.145
in n-butanol, 273.35 K	0.00053
in n-butanol, 278.35 K	0.000696
in n-butanol, 283.35 K	0.000909
in n-butanol, 288.35 K	0.00117
in n-butanol, 292.85 K	0.00147
in n-butanol, 297.95 K	0.00187
in n-butanol, 302.65 K	0.00233
in n-butanol, 307.35 K	0.00287
in n-butanol, 312.55 K	0.0036
in n-butanol, 316.95 K	0.00433
in n-butanol, 322.85 K	0.00551
in n-pentanol, 273.35 K	0.000465
in n-pentanol, 278.35 K	0.000632
in n-pentanol, 283.35 K	0.000843
in n-pentanol, 288.35 K	0.00112
in n-pentanol, 292.85 K	0.00142
in n-pentanol, 297.95 K	0.00186
in n-pentanol, 302.65 K	0.00236
in n-pentanol, 307.35 K	0.00298
in n-pentanol, 312.55 K	0.00382
in n-pentanol, 316.95 K	0.0047
in n-pentanol, 322.85 K	0.00613
in n-propanol, 273.35 K	0.000452
in n-propanol, 278.35 K	0.000616
in n-propanol, 283.35 K	0.000832
in n-propanol, 288.35 K	0.00111
in n-propanol, 292.85 K	0.00142
in n-propanol, 297.95 K	0.00187
in n-propanol, 302.65 K	0.00239
in n-propanol, 307.35 K	0.00304
in n-propanol, 312.55 K	0.00392
in n-propanol, 316.95 K	0.00485
in n-propanol, 322.85 K	0.00633
in toluene, 273.35 K	0.0112
in toluene, 278.35 K	0.0145
in toluene, 283.35 K	0.0185
in toluene, 288.35 K	0.0228
in toluene, 292.85 K	0.0284
in toluene, 297.95 K	0.0346
in toluene, 302.65 K	0.0429
in toluene, 307.35 K	0.052
in toluene, 312.55 K	0.0623
in toluene, 316.95 K	0.076
in toluene, 322.85 K	0.092
